Consider two compounds from patent EP4741389A1, “KAT6 INHIBITOR” (Shanghai Qilu Pharmaceutical Research and Development …, priority 2023, dated 2025).

Series [1] concerns ZR-75-1 H3K23 Acetylation. Briefly: Histone H3 acetylation assay (H3K23 acetylation in ZR-75-1 cells). Format: cell-based. The note with it: Homo sapiens, 72 hours incubation, Odyssey CLx fluorescence, read-out: ZR-75-1 H3K23 Acetylation Inhibition IC50. In a few lines: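 ZR-75-1 cells exposed to serially diluted compounds for 72 h at 37°C, then fixed with 4 w/v% paraformaldehyde, methanol-permeabilized and immunostained for acetyl-H3K23 and total histone H4. Fluorescent secondary antibody signals quantified by imaging; IC50 from four-parameter logistic nonlinear regression.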

Series [2] concerns human breast cancer ZR-75-1 cell xenografts. As to the kind of experiment: In vivo efficacy study in BALB/c nude mouse model with subcutaneous ZR-75-1 xenografts. The note with it: for T/C / TGI / Tumor Volume: 0.3 mg/kg; for T/C / TGI: based on tumor volume on day 21 post-administration; for Tumor Volume: day 21 post-administration, female BALB/c nude mice, 7 per group; for anti-tumor effects: ZR-75-1 xenograft model, tumor growth curves FIG. 2, result in words. The text has this: IV. In vivo efficacy study of test drug Compound 2, Compound 5-P2, Compound 3, and Compound A in a BALB/c nude mouse model with subcutaneously implanted human breast cancer ZR-75-1 cell xenografts
The objective of this experiment is to evaluate the in vivo efficacy of the test drug Compound 2, Compound 5-P2, Compound 3, and Compound A in a BALB/c nude mouse model with subcutaneously implanted human breast cancer ZR-75-1 cell xenografts.
(§1) • Species: Mouse; • Strain: BALB/c nude mice; • Age and weight: 6-8 weeks old, weighing 19-26 grams; • Gender: Female; • Supplier: GemPharmatech Co., Ltd.; • Compound source: Compound A: [drawing 190] prepared with reference to patent CN114364672A.
Human breast cancer ZR-75-1 (ATCC, CRL-1500) cells were cultured in vitro as adherent cultures. The culture conditions were: 1640 medium supplemented with 10 vol% FBS, 100 U/mL penicillin, and 100 µg/mL streptomycin, incubated in a 37°C, 5% CO2 cell culture incubator. Routine passaging was performed twice a week. When cell confluence reached 80%-90% and the cell number met the requirements, cells were harvested, counted, and inoculated.
Three days before cell implantation, a 17β-estrogen pellet (0.36 mg) was implanted into the left dorsal side of each mouse. Starting one week after pellet implantation, animals were urinated 2-3 times per week. If necessary, animals were urinated daily.
(§2) A mixture containing 10×10^6 ZR-75-1 cells in 100 µL PBS and 100 µL Matrigel (final volume was 200 µL) was subcutaneously implanted into the right dorsal side (upper side) of each mouse. On day 18 after cell implantation, when the average tumor volume reached 138 mm^3, grouping and administration were initiated. Mice with tumor volumes ranging from 100 to 212 mm^3 were selected for the study. Mice were randomly assigned to groups based on body weight and tumor volume, with 7 mice per group. The day of grouping was designated as PG-D0, and administration for all groups started from PG-D0.
The experimental index is to investigate whether tumor growth is inhibited, delayed, or cured. Tumor diameters were measured three times per week using a vernier caliper. Tumor volume was calculated using the formula: V = 0.5a × b^2, where a and b represent the major and minor diameters of the tumor, respectively.
The anti-tumor efficacy of the compounds was evaluated using TGI (%) or the relative tumor proliferation rate T/C (%). TGI (%), reflects the tumor growth inhibition rate. TGI (%) was calculated as: TGI (%) = [1 - (Mean tumor volume of a treatment group at the end of administration - Mean tumor volume of the same treatment group at the start of administration) / (Mean tumor volume of the vehicle control group at the end of treatment - Mean tumor volume of the vehicle control group at the start of treatment)] × 100%.
Relative Tumor Proliferation Rate T/C (%): The calculation formula is as follows: T/C% = TRTV / CRTV ×100 % (TRTV: RTV of the treatment group; CRTV: RTV of the negative control group). The relative tumor volume (RTV) was calculated based on tumor measurement results using the formula RTV = Vt /V0, where V0 is the tumor volume of each mouse measured at the start of grouping and administration (i.e., d0), and Vt is the tumor volume of each mouse at a specific measurement time. The mean value for each group was then calculated. V0 and Vt correspond to tumor volume data from the same mouse.

Series [3] can be described thus: Body weight changes and tolerability in the ZR-75-1 xenograft study. In kind it is in vivo, Mouse. The note with it: result in words; for body weight changes: differences among the groups, FIG. 1; for tolerability in tumor-bearing mice: human breast cancer ZR-75-1 model. How it is done: as §1, §2
The effects of the test drugs Compound 2, Compound 5-P2, Compound 3, and Compound A on the body weight of the female BALB/c nude mouse model with subcutaneously implanted human breast cancer ZR-75-1 cell xenografts are shown in FIG. 1.

In the case of `COc1ccc2c(c1S(=O)(=O)Nc1noc3cc(Cn4cccn4)cc(OC)c13)OC[C@@H]1C[C@H]21` [Compound 5-P2, (1aR,7bS)-N-(6-((1H-Pyrazol-1-yl)methyl)-4-methoxybenzo[d]isoxazol-3-yl)-5-methoxy-1,1a,2,7b-tetrahydrocyclopropa[c]chromene-4-sulfonamide], in series [1], the concentration for half-maximal inhibition (IC50) was 0.5 nM. For the same compound, in series [2], the T/C was 12.10%, the TGI is 105.10%, the “Tumor Volume” value is on record as 102 ± 14 mm^3 and the anti-tumor effects result is “more significant anti-tumor effects compared to Compound A”. Besides, in series [3], the body weight changes entry is recorded as “not significant” and the “tolerability in tumor-bearing mice” value is “tolerated”.
Regarding `COc1ccc2c(c1S(=O)(=O)Nc1noc3cc(Cn4cccn4)cc(OC)c13)OCCCO2` [Compound 2, N-(6-((1H-Pyrazol-1-yl)methyl)-4-methoxybenzo[d]isoxazol-3-yl)-7-methoxy-3,4-dihyd ro-2H-benzo[b][1,4]dioxepine-6-sulfonamide], the IC50 in series [1] stood at 5.1 nM. Besides, in series [2], the T/C turned out to be 20.83%, the TGI came out at 93.97%, the “Tumor Volume” value was found to be 182 ± 39 mm^3 and the anti-tumor effects entry was “more significant anti-tumor effects compared to Compound A”. Moreover, in series [3], the body weight changes result is “not significant” and the “tolerability in tumor-bearing mice” value is given as “tolerated”.
